Patent US20240293558A1, “KRAS INHIBITOR CONJUGATES” (Erasca, Inc., priority 2021, published 2024)

Biological target: T1, KRAS 4B G12C protein (Homo sapiens, UniProt P01116, G12C)
T1 construct: made in house; host or cells: E. coli BL21
Assay: In vitro covalent adduct formation (CAF) assay, LC-MS
Format: binding
Details: 5 μM KRAS 4B G12C, 10 μM compound, 22° C.
Procedure: This Example provides a protocol for assessing covalent adduct formation (CAF) between the compounds provided herein and KRAS.
In vitro covalent adduct formation assay: Covalent adduct formation (CAF) reactions between Cys12 of the KRAS 4B G12C protein and embodiments of the application were measured in vitro using liquid chromatography-mass spectrometry (LC-MS).
Recombinant Human KRAS 4B protein containing the G12C mutation was used in compound screening experiments. This protein contained 188 amino acids in total, including an N-terminal 6-Histidine tag, followed by a Tobacco Etch Virus (TEV) tag, followed by residues 1-169 of the native KRAS 4B sequence. The exact mass of the protein was 21,310 Da as determined by mass spectrometry. […]
The recombinant protein was expressed in E. coli BL21 cells and purified using affinity chromatography via a Ni-NTA column. […] The intact mass of the protein samples was measured by LC-MS using a QExactive+mass spectrometer (Thermo Scientific). An amount of 500 ng total protein was injected onto a C8 reverse phase column, eluted with a seven-minute gradient of 30%-90% acetonitrile/0.10% formic acid, and analyzed for intact mass by the mass spectrometer. Adducts identified were confirmed to be within 1 Dalton of the expected mass, and the relative ratios of free:adduct protein were used to quantify the percentage of protein bound by the compound. […]

Structure (SMILES): C=CC(=O)N1CCN(c2nc(OCCN3CCC(COc4cc([C@H](C(=O)N5C[C@H](O)C[C@H]5C(=O)N[C@@H](C)c5ccc(-c6c(F)cccc6F)cc5)C(C)C)on4)CC3)nc3c(F)c(-c4nc(N)cc(C)c4C(F)(F)F)c(Cl)cc23)[C@@H](C)C1 (atropisomer, axis not shown) [Example 200, (2S,4R)-1-((R)-2-(3-((1-(2-((4-((S)-4-acryloyl-2-methylpiperazin-1-yl)-7-((R)-6-amino-4-methyl-3-(trifluoromethyl)pyridin-2-yl)-6-chloro-8-fluoroquinazolin-2-yl)oxy)ethyl)piperidin-4-yl)methoxy)isoxazol-5-yl)-3-methylbutanoyl)-N—((S)-1-(2′,6′-difluoro-[1,1′-biphenyl]-4-yl)ethyl)-4-hydroxypyrrolidine-2-carboxamide]
- % CAF at 5 min: 97%

Structure (SMILES): C=CC(=O)N1CCN(c2nc(OCCN3CCC4(CC3)CN(c3cc([C@H](C(=O)N5C[C@H](O)C[C@H]5C(=O)N[C@@H](C)c5ccc(-c6c(F)cccc6F)cc5)C(C)C)on3)C4)nc3c(F)c(-c4nc(N)cc(C)c4C(F)(F)F)c(Cl)cc23)[C@@H](C)C1 (atropisomer, axis not shown) [Example 201, (2S,4R)-1-((R)-2-(3-(7-(2-(((R)-4-((S)-4-acryloyl-2-methylpiperazin-1-yl)-7-(6-amino-4-methyl-3-(trifluoromethyl)pyridin-2-yl)-6-chloro-8-fluoroquinazolin-2-yl)oxy)ethyl)-2,7-diazaspiro[3.5]nonan-2-yl)isoxazol-5-yl)-3-methylbutanoyl)-N—((S)-1-(2′,6′-difluoro-[1,1′-biphenyl]-4-yl)ethyl)-4-hydroxypyrrolidine-2-carboxamide]
- % CAF at 5 min: 98%
